Data reported in patent US9409952B2, “Peptide-compound cyclization method” (Chugai Seiyaku Kabushiki Kaisha, priority 2011, dated 2016).
Where two headings read alike, the source gives them in different places. Starred links: 1 amine or outer side, 2 acyl side, 3 side chain; linkers in the order of their positions; H or OH if unused. Positions of bridges follow the written chain, without caps; N, C: chain ends. Non-standard residues stand in square brackets, D forms with d. Residues, ends and D or L forms follow the SMILES beside them. *: point of attachment. Arg(Me2s) = CN=C(NC)NCCC[C@H](N)C(=O)O; Lys(Me2) = CN(C)CCCC[C@H](N)C(=O)O; NMeF = CN[C@@H](Cc1ccccc1)C(=O)O; NMeGABA = CN(CCCC(=O)[*:2])[*:1]; NMeI = CC[C@H](C)[C@H](NC)C(=O)O; NMeβAla = CN(CCC(=O)[*:2])[*:1]; NMeL = CN[C@@H](CC(C)C)C(=O)O; NMeV = CN[C@H](C(=O)O)C(C)C; NMeA = CN[C@@H](C)C(=O)O; Piperidide = C1CCN(*)CC1; dNMeA = CN[C@H](C)C(=O)O; Sar = CNCC(=O)O; tBu = CC(C)(C)*

Experiment: PAMPA (parallel artificial membrane permeability assay)
Format: in vitro ADME
Conditions: PAMPA
Protocol: 4 μL of a phospholipid-organic solvent solution composed of 10% (w/v) of egg lecithin, 0.5% (w/v) of cholesterol and dodecane (all purchased from Fluka) was added to a Millipore 96-well membrane filter (hydrophobic PVDF (polyvinylidene difluoride), pore size 0.45 microm) (purchased from Millipore Japan) to make an artificial phospholipid membrane.
A DMSO solution containing the compound at a concentration of 10 mM was added in a percentage of 0.5% (v/v) to a 50 mM MOPSO buffer, pH 6.5, containing 5.0% (w/v) of glycocholic acid, and 330 μL of the mixture was added to a 96-well plate made of Teflon (donor plate). The above artificial phospholipid membrane plate was attached onto the donor plate, and 280 μL of a solution obtained by adding DMSO in a percentage of 0.5% (v/v) to a 50 mM MOPSO buffer, pH 6.5, containing 5.0% (w/w) of glycocholic acid was added onto the artificial phospholipid membrane (acceptor plate). These plates were allowed to stand at 37° C. for 18 hours, after which the concentrations of the compound in the solutions in the donor plate and the acceptor plate were measured by LC/MS or LC/UV, and the membrane permeation rate of the compound (Pe) was calculated by the following formulas (1) and (2), where t is the testing time, A is the membrane filter area, VD is the amount of the donor solution, VA is the amount of the acceptor solution, CD,t is the concentration of the compound in the donor solution at the time t, and CA,t is the concentration of the compound in the acceptor solution at the time t.

[1] = membrane permeation rate (Pe), 50 mM MOPSO buffer pH 6.5 with 5.0% glycocholic acid, 37° C., 18 hours, read-out: iPAMPA Pe

Row | Compound | Papp at 18 hours, 50 µM [1] [×10⁻⁶ cm/s] | Papp at 18 hours, 50 µM (pH 6.5) [×10⁻⁶ cm/s] | also measured
1 | CC[C@H](C)[C@@H]1NC(=O)[C@H](Cc2ccccc2)N(C)C(=O)[C@H](CC(C)C)N(C)C(=O)[C@H](Cc2ccccc2)NC(=O)[C@H]([C@@H](C)O)NC(=O)[C@H](CC(C)C)N(C)C(=O)[C@H](CC(C)C)NC(=O)CCN(C)C(=O)C[C@@H](C(=O)N2CCCCC2)NC(=O)[C@H](CC(C)C)N(C)C1=O [DP-336] ([NMeβAla]L[NMeL]TF[NMeL][NMeF]I[NMeL]D-Piperidide; lactam N-10) | 35 |  | 
2 | C/N=C(\NC)NCCC[C@@H]1NC(=O)[C@H](CC(C)C)N(C)C(=O)[C@H](Cc2ccccc2)N(C)C(=O)[C@H](C)N(C)C(=O)[C@@H](C(C)C)NC(=O)C[C@@H](C(=O)N(C)[C@@H](Cc2ccccc2)C(=O)N[C@@H](C)C(=O)N2CCCCC2)NC(=O)[C@H](CC(C)C)N(C)C(=O)[C@H](CC(C)C)N(C)C(=O)[C@H](C(C)C)NC(=O)CN(C)C1=O [DP-590] ([dV][NMeA][NMeF][NMeL][Arg(Me2s)][Sar]V[NMeL][NMeL]D[NMeF]A-Piperidide; lactam N-10) | 1.4 |  | 
3 | CC(C)C[C@H]1C(=O)N(C)[C@@H](C)C(=O)N[C@@H](COC(C)(C)C)C(=O)N(C)[C@@H](C(C)C)C(=O)N[C@H](C(=O)N2CCCCC2)CC(=O)N(C)[C@@H](C)C(=O)N(C)[C@@H](Cc2ccccc2)C(=O)N[C@@H](C)C(=O)N(C)[C@@H](C)C(=O)N[C@@H](Cc2ccccc2)C(=O)N[C@@H]([C@@H](C)O)C(=O)N(C)[C@@H](C)C(=O)N1C [DP-317] ([NMeA][NMeF]A[NMeA]FT[NMeA][NMeL][NMeA]S(tBu)[NMeV]D-Piperidide; lactam N-12) | 20 |  | 
4 | CC[C@H](C)[C@@H]1NC(=O)[C@H](C)N(C)C(=O)[C@H]([C@@H](C)O)NC(=O)[C@H](CC(C)C)N(C)C(=O)[C@H](Cc2ccccc2)N(C)C(=O)[C@H](C)N(C)C(=O)[C@@H](C(C)C)NC(=O)C[C@@H](C(=O)N(C)[C@@H](Cc2ccccc2)C(=O)N(C)[C@@H](Cc2ccccc2)C(=O)N[C@@H](C)C(=O)N2CCCCC2)NC(=O)[C@H](C(C)C)N(C)C(=O)[C@H](CC(C)C)N(C)C1=O [DP-510] ([dV][NMeA][NMeF][NMeL]T[NMeA]I[NMeL][NMeV]D[NMeF][NMeF]A-Piperidide; lactam N-10) | 2.2 |  | 
5 | CC(C)C[C@@H]1NC(=O)[C@H](CCCCN(C)C)NC(=O)[C@@H]2CCCN2C(=O)[C@H](C)NC(=O)[C@H](CC(C)C)N(C)C(=O)[C@H](Cc2ccccc2)NC(=O)[C@H](CC(C)C)N(C)C(=O)[C@H](CC(C)C)N(C)C(=O)[C@H](Cc2ccccc2)NC(=O)CN(C)C(=O)C[C@@H](C(=O)N(C)[C@@H](Cc2ccccc2)C(=O)N[C@@H](C)C(=O)N2CCCCC2)NC1=O [DP-593] ([Sar]F[NMeL][NMeL]F[NMeL]AP[Lys(Me2)]LD[NMeF]A-Piperidide; lactam N-11) |  | 1.1 | 
6 | COCCc1ccc(OCC(O)CNC(C)C)cc1 (centres unmarked) [metoprolol, reference compound] |  |  | Papp at 18 h, 50 µM: 29 ×10⁻⁶ cm/s
7 | CC[C@H](C)[C@H]1C(=O)N[C@H](C(=O)N2CCCCC2)CC(=O)N(C)CC(=O)N(C)[C@@H](CC(C)C)C(=O)N[C@@H](C)C(=O)N(C)[C@@H](CC(C)C)C(=O)N(C)[C@@H](Cc2ccccc2)C(=O)N(C)[C@@H](CC(C)C)C(=O)N(C)[C@@H](Cc2ccccc2)C(=O)N[C@@H]([C@@H](C)O)C(=O)N(C)[C@@H](C)C(=O)N1C [DP-70] ([Sar][NMeL]A[NMeL][NMeF][NMeL][NMeF]T[NMeA][NMeI]D-Piperidide; lactam N-11) |  | 40 | 
8 | CC[C@H](C)[C@@H]1NC(=O)[C@H](C)N(C)C(=O)C[C@@H](C(=O)N(C)[C@@H](Cc2ccccc2)C(=O)N[C@@H](C)C(=O)N2CCCCC2)NC(=O)[C@H](Cc2ccccc2)N(C)C(=O)CN(C)C(=O)[C@H]([C@@H](C)O)NC(=O)[C@H](C)N(C)C(=O)[C@H](C(C)C)N(C)C(=O)[C@H](CC(C)C)N(C)C(=O)[C@H](Cc2ccccc2)NC(=O)[C@H](CC(C)C)N(C)C1=O [DP-279] ([NMeA]I[NMeL]F[NMeL][NMeV][NMeA]T[Sar][NMeF]D[NMeF]A-Piperidide; lactam N-11) |  | 15 | 
9 | CC[C@H](C)[C@H]1C(=O)N[C@H](C(=O)N2CCCCC2)CC(=O)N[C@@H](C)C(=O)N(C)[C@@H](C)C(=O)N(C)[C@@H](Cc2ccccc2)C(=O)N(C)[C@@H](CC(C)C)C(=O)N[C@@H]([C@@H](C)O)C(=O)N(C)CC(=O)N(C)[C@@H](CC(C)C)C(=O)N[C@@H](COC(C)(C)C)C(=O)N1C [DP-36] (A[NMeA][NMeF][NMeL]T[Sar][NMeL]S(tBu)[NMeI]D-Piperidide; lactam N-10) |  | 27 | 
10 | CC[C@H](C)[C@@H]1NC(=O)[C@H](C)N(C)C(=O)[C@H](CC(C)C)N(C)C(=O)CCCN(C)C(=O)C[C@@H](C(=O)N(C)[C@@H](Cc2ccccc2)C(=O)N[C@@H](C)C(=O)N2CCCCC2)NC(=O)[C@H](CC(C)C)N(C)C(=O)[C@H](C)N(C)C(=O)[C@H]([C@@H](C)O)NC(=O)[C@H](Cc2ccccc2)N(C)C(=O)[C@H](Cc2ccccc2)N(C)C(=O)[C@H](CC(C)C)N(C)C1=O [DP-366] ([NMeGABA][NMeL][NMeA]I[NMeL][NMeF][NMeF]T[NMeA][NMeL]D[NMeF]A-Piperidide; lactam N-11) | 14 |  | 
11 | CC[C@H](C)[C@@H]1NC(=O)[C@H](CC(C)C)N(C)C(=O)[C@H](CC(C)C)N(C)C(=O)[C@H](C)N(C)C(=O)[C@H]([C@@H](C)O)NC(=O)[C@H](Cc2ccccc2)N(C)C(=O)[C@@H](C)N(C)C(=O)C[C@@H](C(=O)N(C)[C@@H](Cc2ccccc2)C(=O)N(C)[C@@H](Cc2ccccc2)C(=O)N[C@@H](C)C(=O)N2CCCCC2)NC(=O)[C@H](C(C)C)N(C)C1=O [DP-399] ([dNMeA][NMeF]T[NMeA][NMeL][NMeL]I[NMeV]D[NMeF][NMeF]A-Piperidide; lactam N-9) | 0.89 |  | 
12 | CC(C)C[C@@H]1NC(=O)[C@H](Cc2ccccc2)N(C)C(=O)CCN(C)C(=O)C[C@@H](C(=O)N2CCCCC2)NC(=O)[C@H](Cc2ccccc2)N(C)C(=O)[C@H](C)N(C)C(=O)[C@H]([C@@H](C)O)NC(=O)CN(C)C(=O)[C@H](C(C)C)N(C)C(=O)[C@H](C)NC(=O)[C@H](C(C)C)N(C)C(=O)[C@H](CC(C)C)N(C)C1=O [DP-318] ([NMeβAla][NMeF]L[NMeL][NMeV]A[NMeV][Sar]T[NMeA][NMeF]D-Piperidide; lactam N-12) | 26 |  | 
13 | CC(C)C[C@@H]1NC(=O)CN(C)C(=O)[C@H](CCCCN(C)C)NC(=O)[C@H](CC(C)C)N(C)C(=O)[C@H](Cc2ccccc2)N(C)C(=O)[C@H](C)N(C)C(=O)[C@@H](C(C)C)NC(=O)C[C@@H](C(=O)N(C)[C@@H](Cc2ccccc2)C(=O)N[C@@H](C)C(=O)N2CCCCC2)NC(=O)[C@H](CC(C)C)N(C)C(=O)[C@H](CC(C)C)N(C)C1=O [DP-587] ([dV][NMeA][NMeF][NMeL][Lys(Me2)][Sar]L[NMeL][NMeL]D[NMeF]A-Piperidide; lactam N-10) | 3.3 |  | 
14 | CC(C)C[C@H]1C(=O)N[C@H](C(=O)N(C)[C@@H](Cc2ccccc2)C(=O)N(C)[C@@H](Cc2ccccc2)C(=O)N[C@@H](C)C(=O)N2CCCCC2)CC(=O)N(C)[C@@H](C)C(=O)N(C)[C@@H](C)C(=O)N(C)[C@@H](Cc2ccccc2)C(=O)N[C@@H]([C@@H](C)O)C(=O)N(C)[C@@H](C)C(=O)N(C)[C@@H](CC(C)C)C(=O)N(C)[C@@H](CC(C)C)C(=O)N[C@@H](C(C)C)C(=O)N1C [DP-206] ([NMeA][NMeA][NMeF]T[NMeA][NMeL][NMeL]V[NMeL]D[NMeF][NMeF]A-Piperidide; lactam N-10) | 9 |  | 
15 | CC(C)C[C@H]1C(=O)N[C@H](C(=O)N(C)[C@@H](Cc2ccccc2)C(=O)N[C@@H](C)C(=O)N2CCCCC2)CC(=O)N(C)[C@@H](C)C(=O)N[C@@H]([C@@H](C)O)C(=O)N(C)[C@@H](Cc2ccccc2)C(=O)N(C)[C@@H](CC(C)C)C(=O)N(C)[C@@H](CC(C)C)C(=O)N[C@@H](C)C(=O)N(C)[C@@H](Cc2ccccc2)C(=O)N(C)[C@@H](CC(C)C)C(=O)N1C [DP-192] ([NMeA]T[NMeF][NMeL][NMeL]A[NMeF][NMeL][NMeL]D[NMeF]A-Piperidide; lactam N-10) | 0.64 |  | 
16 | CC[C@H](C)[C@H]1C(=O)N[C@@H]([C@@H](C)O)C(=O)N[C@@H](Cc2ccccc2)C(=O)N2CCC[C@H]2C(=O)NCC(=O)N(C)[C@@H](CC(C)C)C(=O)N[C@H](C(=O)N(C)[C@@H](Cc2ccccc2)C(=O)N[C@@H](C)C(=O)N2CCCCC2)CC(=O)N[C@H](C(C)C)C(=O)N[C@@H](Cc2ccccc2)C(=O)N(C)[C@@H](CC(C)C)C(=O)N[C@@H](CC(C)C)C(=O)N1C [DP-278] ([dV]F[NMeL]L[NMeI]TFPG[NMeL]D[NMeF]A-Piperidide; lactam N-11) |  | 1.5 | 
17 | CC(C)C[C@H]1C(=O)N(C)[C@@H](C(C)C)C(=O)N[C@@H](Cc2ccccc2)C(=O)N[C@H](C(=O)N(C)[C@@H](Cc2ccccc2)C(=O)N(C)[C@@H](Cc2ccccc2)C(=O)N[C@@H](C)C(=O)N2CCCCC2)CC(=O)N[C@@H](C)C(=O)N[C@@H](C(C)C)C(=O)N(C)[C@@H](CC(C)C)C(=O)N[C@@H]([C@@H](C)O)C(=O)N(C)[C@@H](Cc2ccccc2)C(=O)NCC(=O)N1C [DP-287] (AV[NMeL]T[NMeF]G[NMeL][NMeV]FD[NMeF][NMeF]A-Piperidide; lactam N-10) |  | 1.4 | 
